Data taken from ChEMBL document CHEMBL1201862, “PubChem BioAssay data set” (2004).
One block for each molecule: values may come before it. Calls of active or inactive are those of the source.

What was measured:
Beta-galactosidase = Beta-galactosidase (Escherichia coli, UniProt Q8VNN2); assay: PubChem AID 485352; assay type: functional
[1] = target: T1, Type-1 angiotensin II receptor (Homo sapiens, UniProt P30556); assay: AT1 receptor antagonists, dose response, selectivity assay for APJ receptor antagonist project, cell-based, uHTS hits (AID 463214); assay type: functional;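 note: antagonist potency against angiotensin II stimulated AT1 response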
T1 sequence (P30556 whole entry): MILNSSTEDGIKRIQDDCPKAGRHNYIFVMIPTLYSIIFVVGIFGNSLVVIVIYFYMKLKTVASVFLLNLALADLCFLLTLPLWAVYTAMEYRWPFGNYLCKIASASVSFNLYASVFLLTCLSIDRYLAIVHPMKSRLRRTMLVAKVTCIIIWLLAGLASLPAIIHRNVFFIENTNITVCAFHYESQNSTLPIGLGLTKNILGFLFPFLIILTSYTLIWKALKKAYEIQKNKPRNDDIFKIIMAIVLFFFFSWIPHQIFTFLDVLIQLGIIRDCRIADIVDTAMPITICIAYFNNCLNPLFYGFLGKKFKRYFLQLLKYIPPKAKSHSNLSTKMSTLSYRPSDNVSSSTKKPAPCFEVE

INS1 = assay: beta cell apoptosis inhibitors, cytokine rescue, dose response, luminescence, retest (AID 449756); assay type: functional, cell-based; conditions: Rattus norvegicus;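 note: cell death triggered by IL-1 beta plus TNF-alpha plus IFN-gamma mixture; protective hits raise ATP signal compared with cytokine alone wells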
[2] = cytotoxicity in HEK-293T NF-kB-Luc cells, dose response, cytotoxicity control for B/T-cell NF-kB inhibitor project, cell-based, uHTS hits (AID 489019); assay type: functional;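 note: IC50 reflects cytotoxicity as loss of cell viability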
Protein Wnt-3a = Protein Wnt-3a (Mus musculus, UniProt P27467); assay: Wnt3a-driven reporter signaling inhibition, dose response, selectivity assay for Gli-SUFU antagonist project, Wnt-LIGHT cells, luminescence (AID 651570); assay type: functional; conditions: read-out: IC50_Mean;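 note: Wnt-LIGHT reporter cells stimulated with conditioned medium from Wnt3a-producing cells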
Protein Wnt-3a, sequence (P27467 whole entry): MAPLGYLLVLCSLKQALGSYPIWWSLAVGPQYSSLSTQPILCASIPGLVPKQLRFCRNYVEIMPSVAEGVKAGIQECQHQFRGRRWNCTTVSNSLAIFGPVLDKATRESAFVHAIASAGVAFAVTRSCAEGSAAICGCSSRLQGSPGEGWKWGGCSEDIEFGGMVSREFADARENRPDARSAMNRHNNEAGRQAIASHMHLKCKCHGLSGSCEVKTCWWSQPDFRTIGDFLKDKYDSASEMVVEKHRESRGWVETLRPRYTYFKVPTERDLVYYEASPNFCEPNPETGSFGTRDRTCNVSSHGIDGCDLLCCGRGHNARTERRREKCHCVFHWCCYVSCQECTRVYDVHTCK

[3] = Shn3 3'UTR reporter inhibitors, dose response, cell-based, Clone20 osteoblasts, firefly luciferase, cherry-picked (AID 624132); assay type: functional;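 note: firefly luciferase luminescence from reporter carrying the Shn3 3'UTR in osteoblasts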
Jurkat = assay: antigen receptor-induced NF-kB inhibitors, dose response, Jurkat, luciferase reporter, luminescence, B- and T-cell (AID 489004); assay type: functional, cell-based; conditions: Homo sapiens;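 note: NF-kB luciferase reporter Jurkat cells stimulated with PMA plus ionomycin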
[4] = control 3'UTR Renilla luciferase suppression, dose response, counter-screen for Shn3 inhibitor project, cell-based, Clone20-Shn3RL, cherry-picked (AID 624133); assay type: functional
[5] = target: T2, COUP transcription factor 2 (Homo sapiens, UniProt P24468); assay: Luminescence-based cell-based high throughput dose response assay to identify inhibitors of COUP-TFII (NR2F2).; assay type: functional;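 note: HEK293 cells transiently cotransfected with COUP-TFII expression vector and reporter; luciferase reporter luminescence driven by COUP-TFII from the pX2-168 reporter plasmid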
T2 sequence (P24468 whole entry): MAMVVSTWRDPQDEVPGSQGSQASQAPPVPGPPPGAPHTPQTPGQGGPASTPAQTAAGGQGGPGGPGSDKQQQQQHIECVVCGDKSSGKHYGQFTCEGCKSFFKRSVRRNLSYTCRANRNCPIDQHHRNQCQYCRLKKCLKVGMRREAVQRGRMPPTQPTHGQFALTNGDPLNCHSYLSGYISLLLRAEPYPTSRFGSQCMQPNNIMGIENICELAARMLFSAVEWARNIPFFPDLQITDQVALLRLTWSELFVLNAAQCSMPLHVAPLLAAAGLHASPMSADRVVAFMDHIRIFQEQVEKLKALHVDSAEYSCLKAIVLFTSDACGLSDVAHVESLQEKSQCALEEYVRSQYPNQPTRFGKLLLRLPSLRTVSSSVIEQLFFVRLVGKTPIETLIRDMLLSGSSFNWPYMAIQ

Hexokinase HKDC1 = target: T3, Hexokinase HKDC1 (Homo sapiens, UniProt Q2TB90); assay: SAR analysis of small molecule inhibitors of hexokinase domain containing I (HKDC1). [Related pubchem assays (depositor defined):AID493160, AID493190]; assay type: functional
T3 sequence (Q2TB90 whole entry): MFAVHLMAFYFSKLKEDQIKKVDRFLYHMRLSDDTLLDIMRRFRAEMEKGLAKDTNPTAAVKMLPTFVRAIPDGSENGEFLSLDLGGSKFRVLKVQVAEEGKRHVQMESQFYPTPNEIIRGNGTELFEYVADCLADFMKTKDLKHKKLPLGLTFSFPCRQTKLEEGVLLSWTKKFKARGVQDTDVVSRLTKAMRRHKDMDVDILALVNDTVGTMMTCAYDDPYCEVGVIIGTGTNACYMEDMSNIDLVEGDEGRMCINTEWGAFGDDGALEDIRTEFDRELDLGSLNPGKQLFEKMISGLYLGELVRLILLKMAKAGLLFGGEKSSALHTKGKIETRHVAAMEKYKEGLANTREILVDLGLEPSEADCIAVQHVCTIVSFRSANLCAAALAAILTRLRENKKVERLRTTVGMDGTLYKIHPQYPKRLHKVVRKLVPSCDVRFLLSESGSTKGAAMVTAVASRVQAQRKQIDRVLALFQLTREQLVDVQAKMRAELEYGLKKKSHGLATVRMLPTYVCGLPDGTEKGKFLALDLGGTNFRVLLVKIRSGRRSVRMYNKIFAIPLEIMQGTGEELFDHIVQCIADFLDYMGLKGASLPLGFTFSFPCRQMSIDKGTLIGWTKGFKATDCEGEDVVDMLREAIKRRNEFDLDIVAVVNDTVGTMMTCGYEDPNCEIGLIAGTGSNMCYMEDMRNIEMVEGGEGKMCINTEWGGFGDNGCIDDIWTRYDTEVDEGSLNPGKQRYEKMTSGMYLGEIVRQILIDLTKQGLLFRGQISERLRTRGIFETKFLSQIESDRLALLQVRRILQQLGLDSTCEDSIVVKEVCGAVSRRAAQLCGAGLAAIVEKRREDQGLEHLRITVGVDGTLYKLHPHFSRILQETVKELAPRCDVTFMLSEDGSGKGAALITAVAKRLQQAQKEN

Hexokinase-1 = target: T4, Hexokinase-1 (Homo sapiens, UniProt P19367); assay: SAR analysis of small molecule inhibitors of hexokinase domain containing I (HKDC1) in the hexokinase 1 selectivity assay. [Related pubchem assays (depositor defined):AID493160, AID493190]; assay type: functional
T4 sequence (P19367 whole entry): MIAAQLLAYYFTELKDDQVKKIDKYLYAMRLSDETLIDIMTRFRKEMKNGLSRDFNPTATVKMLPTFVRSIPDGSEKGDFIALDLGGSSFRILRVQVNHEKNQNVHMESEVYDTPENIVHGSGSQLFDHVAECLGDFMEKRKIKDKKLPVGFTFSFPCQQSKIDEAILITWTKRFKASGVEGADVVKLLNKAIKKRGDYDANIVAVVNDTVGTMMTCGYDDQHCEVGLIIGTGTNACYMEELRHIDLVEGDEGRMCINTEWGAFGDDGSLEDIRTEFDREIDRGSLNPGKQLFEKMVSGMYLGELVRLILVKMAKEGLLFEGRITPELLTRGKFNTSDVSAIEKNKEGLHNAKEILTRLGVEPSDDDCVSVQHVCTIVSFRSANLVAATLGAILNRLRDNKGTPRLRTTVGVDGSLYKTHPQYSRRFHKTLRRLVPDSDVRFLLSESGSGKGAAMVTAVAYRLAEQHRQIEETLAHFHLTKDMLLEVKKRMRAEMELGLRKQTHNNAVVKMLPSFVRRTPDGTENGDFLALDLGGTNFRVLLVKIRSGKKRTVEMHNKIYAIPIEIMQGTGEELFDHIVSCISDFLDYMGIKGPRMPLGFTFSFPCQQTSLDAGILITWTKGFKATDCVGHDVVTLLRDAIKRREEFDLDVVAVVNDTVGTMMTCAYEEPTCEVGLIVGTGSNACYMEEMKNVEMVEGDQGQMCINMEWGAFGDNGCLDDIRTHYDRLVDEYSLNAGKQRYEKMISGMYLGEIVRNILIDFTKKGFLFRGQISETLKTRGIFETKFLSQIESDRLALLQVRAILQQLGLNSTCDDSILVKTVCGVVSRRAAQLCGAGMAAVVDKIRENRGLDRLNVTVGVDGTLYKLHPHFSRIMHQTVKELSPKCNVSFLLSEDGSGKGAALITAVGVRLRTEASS

Beta-galactosidase, sequence (Q8VNN2 whole entry): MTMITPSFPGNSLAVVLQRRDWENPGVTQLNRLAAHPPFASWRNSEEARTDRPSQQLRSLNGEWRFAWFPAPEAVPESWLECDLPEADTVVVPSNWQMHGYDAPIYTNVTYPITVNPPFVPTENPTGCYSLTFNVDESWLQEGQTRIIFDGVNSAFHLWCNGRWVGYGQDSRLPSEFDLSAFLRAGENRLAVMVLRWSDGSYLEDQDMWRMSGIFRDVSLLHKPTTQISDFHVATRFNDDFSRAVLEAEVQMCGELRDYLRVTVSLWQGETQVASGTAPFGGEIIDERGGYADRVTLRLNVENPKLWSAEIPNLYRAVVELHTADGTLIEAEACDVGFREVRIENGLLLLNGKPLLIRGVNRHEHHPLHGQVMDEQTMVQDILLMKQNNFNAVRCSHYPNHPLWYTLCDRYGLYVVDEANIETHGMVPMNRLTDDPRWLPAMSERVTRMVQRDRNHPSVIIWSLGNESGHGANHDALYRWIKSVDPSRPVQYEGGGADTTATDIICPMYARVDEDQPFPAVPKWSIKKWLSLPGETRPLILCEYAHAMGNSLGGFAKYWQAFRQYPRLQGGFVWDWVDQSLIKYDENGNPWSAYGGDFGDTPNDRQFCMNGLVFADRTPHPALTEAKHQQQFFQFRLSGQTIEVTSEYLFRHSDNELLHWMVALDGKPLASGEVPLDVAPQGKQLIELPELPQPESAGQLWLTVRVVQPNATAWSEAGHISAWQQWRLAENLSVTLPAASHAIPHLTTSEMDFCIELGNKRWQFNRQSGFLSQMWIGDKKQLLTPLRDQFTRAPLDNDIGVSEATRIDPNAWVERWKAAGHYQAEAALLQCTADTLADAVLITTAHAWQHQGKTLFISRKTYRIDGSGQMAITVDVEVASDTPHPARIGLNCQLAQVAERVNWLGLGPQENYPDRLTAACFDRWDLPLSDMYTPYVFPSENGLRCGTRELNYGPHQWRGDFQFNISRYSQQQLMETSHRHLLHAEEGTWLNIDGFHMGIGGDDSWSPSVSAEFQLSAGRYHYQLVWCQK

- EC50 (Beta-galactosidase): > 40 µM (inactive)
- IC50 [1]: 23.2 µM (not active)
Structure (SMILES): O=C(Cc1ccccc1)NCC(=O)OCC(=O)c1cccc([N+](=O)[O-])c1

Structure (SMILES): CCOC(=O)C1CCCN(S(=O)(=O)c2ccc(S(=O)(=O)N(CC)CC)cc2)C1 (stereo not drawn)
- AC50 (INS1): 2.6 µM (active)
- IC50 [2]: > 80 µM (inactive)
- IC50 (Protein Wnt-3a): 0.236 µM (active)
- AC50 [3]: 0.512 µM (active)
- IC50 (Jurkat): > 80 µM (inactive)
- AC50 [4]: 0.801 µM (active)
- IC50 [5]: 4.75 µM (active)

- IC50 (Hexokinase HKDC1): > 80 µM (inactive)
- IC50 (Hexokinase-1): > 80 µM (inactive)
Structure (SMILES): Cc1ccoc1C(=O)Nc1cccc(C(=O)Nc2cccc(C(F)(F)F)c2)c1

- IC50 (Hexokinase HKDC1): > 80 µM (inactive)
- IC50 (Hexokinase-1): > 80 µM (inactive)
Structure (SMILES): COc1ccc(NC(=O)c2ccc(NC(=O)c3scnc3C)cc2)cc1
